From paper PMC12518634, “The noncanonical function of liver-type phosphofructokinase potentiates the efficacy of HDAC inhibitors in cancer” (Signal Transduction and Targeted Therapy, 2025)
Where no end group is shown, it is not given here.

Key:
HuCCT1 cells [1] = assay: CCK-8 cytotoxicity of the peptides; assay type: cell-based, human; conditions: CCK-8 assay, n=3 biological replicates, Supplementary Fig. 13c
Experimental: The cell proliferation rates were determined with a CCK-8 Cell Counting Kit (Vazyme, A311) in strict accordance with the provided protocol. The colony formation capacity was assessed by plating the cells in 6-well plates (5000 cells/well), followed by drug treatment over a 7-day period. Finally, the resulting colonies were subjected to crystal violet staining for subsequent quantification.
(§1) Supplementary Fig. 13. […] Scale bars, 100 μm. i Body weight of each group of HuCCT1 xenografts at the end of treatment is plotted (n = 6 mice per group, two-way ANOVA). j The tumor weight of each group of HuCCT1 xenografts at the end of treatment is plotted (n = 6 mice per group, Student’s t test).

HuCCT1 cells [2] = assay: Confocal imaging of peptide infiltration into cells; assay type: in vitro ADME, human; conditions: confocal images, Supplementary Fig. 13b
From the text: as §1

TFK1 cells = assay: Cell viability assay (CellTiter-Glo, 72 h), GI50; assay type: cell-based, human; conditions: TFK1 sgPFKL-1 and sgPFKL-2 versus sgNC, Supplementary Fig. 2d
Experimental: Cell viability was assessed using the CellTiter-Glo luminescent cell viability assay (Vazyme, DD1101) following the manufacturer’s instructions. Briefly, 5000 cells per well were seeded into a 96-well white bottom permeable plate. Different concentrations of drugs were added to each well. After 72 h of treatment, a mixture of CellTier reagent and serum-free culture medium was prepared at a 1:1 ratio, and 100 μL of the mixture was added to each well. After incubation at 37 °C for 15 min, the luminescence was measured using a microplate reader (Synergy H1, Biotek). All the experiments were conducted in triplicate. Cell viability (relative luminescence) was defined as the luminescence of the drug treatment relative to that of the vehicle control.

1405R3 = assay: High-throughput drug screen, CellTiter-Glo viability, 72 h; assay type: cell-based, human; set-up: AUC: scale not given here; conditions: 1405R3 DSRT analysis
Outline: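 Responses are drug sensitivity scores (efficacy cutoff ≥10), fitted from CellTiter-Glo luminescence. Each drug was given at five concentrations (10 to 0.001 μM, tenfold steps) in duplicate for 72 h. Cells were plated at 3000/well 24 h before dosing.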

783C-6 = assay: as above; assay type: cell-based, human; set-up: AUC: scale not given here
Outline: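 Cholangiocarcinoma cells were seeded at 3000/well in 384-well plates and dosed after 24 h. Drugs were tested at 10, 1, 0.1, 0.01 and 0.001 μM in duplicate for 72 h, with viability read by CellTiter-Glo luminescence.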

Question: What does the source list for “CDRIKQSASGTKRRVFIVETMRRRRRRRR [PFKL-552-572-R8]”?
Answer: cytotoxicity (HuCCT1 cells [1]): low cytotoxicity; cellular permeability (HuCCT1 cells [2]): good cellular permeability

Question: How did the “effect of PFKL knockout on drug efficacy (cell viability)” value (TFK1 cells) turn out when `O=C(/C=C/c1cccc(S(=O)(=O)Nc2ccccc2)c1)NO` [belinostat, reference compound] was run?
Answer: The value was “significantly inhibited drug efficacy”.

Question: What about the DSS (1405R3; DSS) of the same compound?
Answer: Its DSS is 12.9.

Question: What about the AUC (1405R3; area under the dose-response curve) of the same compound?
Answer: Its AUC is 121.5.

Question: And the MIN (1405R3; lower asymptote of fitted dose-response curve)?
Answer: Its MIN is 0.

Question: And the EC50 (1405R3; Homo sapiens, fitted dose-response curve, Min.Conc.tested 1, Max.Conc.tested 10000, CellTiter-Glo, 72 h, read-out: EC50)?
Answer: Its EC50 is 684 nM.

Question: What about the DSS (783C-6; 783C-6 DSRT analysis, DSS calculated from the dose-response curve) of the same compound?
Answer: The DSS was 19.

Question: What about the MIN (783C-6; 783C-6 DSRT analysis, MIN of the fitted dose-response curve) of the same compound?
Answer: Its MIN is 0.2.

Question: And the AUC (783C-6; 783C-6 DSRT analysis, area under the dose-response curve)?
Answer: The AUC was 173.8.

Question: And the EC50 (783C-6; Homo sapiens, 72 h, read-out: EC50)?
Answer: The EC50 was 195 nM.

Question: For CDRIKQSASGKRRVFIVETMRRRRRRRR [∆562-R8], which cytotoxicity (HuCCT1 cells [1]) is on record?
Answer: Its cytotoxicity is “low cytotoxicity”.

Question: What about the cellular permeability (HuCCT1 cells [2]) of the same compound?
Answer: Its cellular permeability is “good cellular permeability”.
